Test results: patent publication US9850283B2, “Macrocyclic inhibitors of the PD-1/PD-L1 and CD80(B7-1)/PD-L1 protein/protein interactions” (BRISTOL-MYERS SQUIBB COMPANY, priority 2013, dated 2017)
Like-named read-outs stand apart in the source and are kept apart here. Positions of bridges follow the written chain, without caps; N, C: chain ends. Non-standard residues stand in square brackets, D forms with d. Residues, ends and D or L forms follow the SMILES beside them. ξ: configuration not given here. Bip = N[C@@H](Cc1ccc(-c2ccccc2)cc1)C(=O)O; Phe(2-F) = N[C@@H](Cc1ccccc1F)C(=O)O; Bta = N[C@@H](Cc1csc2ccccc12)C(=O)O; Hyp = O=C(O)[C@@H]1C[C@@H](O)CN1; NMeF = CN[C@@H](Cc1ccccc1)C(=O)O; NMeNle = CCCC[C@H](NC)C(=O)O; NMeA = CN[C@@H](C)C(=O)O; Orn = NCCC[C@H](N)C(=O)O; Dab = NCC[C@H](N)C(=O)O; Dap = NC[C@H](N)C(=O)O; ξhCys = NC(CCS)C(=O)O; ξC = NC(CS)C(=O)O; Sar = CNCC(=O)O

Legend:
Human PD-L1/PD-1 = target: T1, Human PD-L1/PD-1 (Homo sapiens, UniProt Q9NZQ7); test: HTRF PD-1-Ig/PD-L1-His binding assay (human PD-L1); settings: cluster symbol; read-out: HTRF IC50 cluster
T1 construct: made in house; host or cells: HEK293T
Summary of the method: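 HTRF read-out: Eu cryptate anti-Ig mAb 1 nM final, APC anti-His mAb 20 nM final, added over the binding reaction. Proteins were PD-1-Ig and PD-L1-His ectodomain fusions. Buffer was dPBS, 0.1% BSA, 0.05% Tween-20.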

[1] = target: T2, LK35.2-hPD-L1 cells / PE-labeled PD-1-Ig (Homo sapiens, UniProt Q9NZQ7); test: LK35.2-hPD-L1 cell binding high-content screening assay; format: cell-based
T2 construct: expressed in transfected cells; host or cells: LK35.2 mouse B cell line
Summary of the method: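 Fluorescent PD-1-Ig binding to PD-L1-expressing LK35.2 cells, imaged after washing. Conditions: 1 nM PE-PD-1-Ig, 37 °C, 1 h, RPMI with 10% fetal calf serum.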

[2] = cell binding assay, cell line not given, cluster symbol, read-out: CBA IC50 cluster
[3] = cluster symbol, cell line of CBA not given (LK35.2-hPD-L1 or 293T-hPD-L1), read-out: CBA IC50 cluster

T1 sequence (Q9NZQ7 with tags, fused parts or gaps): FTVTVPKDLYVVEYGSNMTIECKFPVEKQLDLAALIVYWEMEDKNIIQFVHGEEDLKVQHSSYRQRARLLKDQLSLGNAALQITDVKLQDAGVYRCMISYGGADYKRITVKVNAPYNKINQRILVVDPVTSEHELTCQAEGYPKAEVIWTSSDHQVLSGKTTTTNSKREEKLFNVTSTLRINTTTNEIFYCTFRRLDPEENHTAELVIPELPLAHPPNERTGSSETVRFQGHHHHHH
T2 sequence (Q9NZQ7 19-290): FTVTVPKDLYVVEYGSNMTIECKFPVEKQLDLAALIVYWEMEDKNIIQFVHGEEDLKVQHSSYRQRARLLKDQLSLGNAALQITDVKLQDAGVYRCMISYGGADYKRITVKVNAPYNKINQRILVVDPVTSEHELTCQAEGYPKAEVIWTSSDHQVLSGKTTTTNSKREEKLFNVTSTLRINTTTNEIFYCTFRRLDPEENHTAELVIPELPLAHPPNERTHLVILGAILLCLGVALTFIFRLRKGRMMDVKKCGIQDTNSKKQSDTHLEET

Structure (SMILES) | IC50 (Human PD-L1/PD-1) [nM] | IC50 [1, 2] [nM] | IC50 [1, 3] [nM] | IC50 ([1]; cell binding assay, cell line not given, value given instead of cluster, read-out: CBA IC50 value) [nM]
CCCC[C@H]1C(=O)N(C)[C@@H](CCCC)C(=O)N[C@@H](CCCNC(=N)N)C(=O)NC(C(=O)NCC(N)=O)CSCC(=O)N[C@@H](Cc2ccc(O)cc2)C(=O)N(C)[C@@H](C)C(=O)N[C@@H](CC(N)=O)C(=O)N2CCC[C@H]2C(=O)N[C@@H](Cc2cnc[nH]2)C(=O)N[C@@H](CO)C(=O)N2C[C@H](O)C[C@H]2C(=O)N[C@@H](Cc2c[nH]c3ccccc23)C(=O)N[C@@H](CO)C(=O)N[C@@H](Cc2csc3ccccc23)C(=O)N1C (stereo partly shown) [Example 9070] ({CH2CO}-Y[NMeA]NPHS[Hyp]WS[Bta][NMeNle][NMeNle]R[ξC]G-NH2; thioether N-14) | 6.76 to 30.3 | 0.158 to 4.71 |  | 
CCCC[C@H]1C(=O)N(C)[C@@H](CCCC)C(=O)N[C@@H](C)C(=O)N[C@H](C(=O)NCC(N)=O)CSCC(=O)N[C@@H](Cc2ccc(O)cc2)C(=O)N(C)[C@@H](C)C(=O)N[C@@H](CC(N)=O)C(=O)N2CCC[C@H]2C(=O)N[C@@H](Cc2cnc[nH]2)C(=O)N[C@@H](CCC(N)=O)C(=O)N2C[C@H](O)C[C@H]2C(=O)N[C@@H](Cc2c[nH]c3ccccc23)C(=O)N[C@@H](CO)C(=O)N[C@@H](Cc2c[nH]c3ccccc23)C(=O)N1C [Example 5047] | 6.76 to 30.3 | 4.78 to 72.9 |  | 
CCCC[C@H]1C(=O)N(C)[C@@H](CCCC)C(=O)N[C@@H](CCCNC(=N)N)C(=O)N[C@H](C(=O)NCC(N)=O)CSCC(=O)N[C@@H](Cc2ccc(O)cc2)C(=O)N(C)[C@@H](C)C(=O)N[C@@H](CCC(=O)O)C(=O)N2CCC[C@H]2C(=O)N[C@@H](Cc2cnc[nH]2)C(=O)N[C@@H](CC(C)C)C(=O)N2C[C@H](O)C[C@H]2C(=O)N[C@@H](Cc2c[nH]c3ccccc23)C(=O)N[C@@H](CO)C(=O)N[C@@H](Cc2c[nH]c3ccccc23)C(=O)N1C [Example 1175] ({CH2CO}-Y[NMeA]EPHL[Hyp]WSW[NMeNle][NMeNle]RCG-NH2; thioether N-14) | 0.385 to 6.74 |  | 4.78 to 72.9 | 
CCCC[C@H]1C(=O)N(C)[C@@H](CCCC)C(=O)N[C@@H](CCCNC(=N)N)C(=O)N[C@H](C(=O)NCC(N)=O)CSCC(=O)N[C@@H](Cc2ccccc2)C(=O)N(C)[C@@H](C)C(=O)N[C@@H](CC(N)=O)C(=O)N2CCC[C@H]2C(=O)N[C@@H](Cc2cnc[nH]2)C(=O)N[C@@H](CCCNC(=N)N)C(=O)N(C)CC(=O)N[C@@H](Cc2c[nH]c3ccccc23)C(=O)N[C@@H](CO)C(=O)N[C@@H](Cc2c[nH]c3ccccc23)C(=O)N1C [Example 6003] ({CH2CO}-F[NMeA]NPHR[Sar]WSW[NMeNle][NMeNle]RCG-NH2; thioether N-14) | 6.76 to 30.3 |  |  | 72.9
CCCC[C@H]1C(=O)N(C)[C@@H](CCCC)C(=O)N[C@@H](CCCNC(=N)N)C(=O)N[C@H](C(=O)NCC(N)=O)CSCC(=O)N[C@@H](Cc2ccccc2)C(=O)N(C)[C@@H](C)C(=O)N[C@@H](CC(N)=O)C(=O)N2CCC[C@H]2C(=O)N[C@@H](CCCN)C(=O)N[C@@H](CC(C)C)C(=O)N(C)CC(=O)N[C@@H](Cc2c[nH]c3ccccc23)C(=O)N[C@@H](CO)C(=O)N[C@@H](Cc2c[nH]c3ccccc23)C(=O)N1C [Example 1059] ({CH2CO}-F[NMeA]NP[Orn]L[Sar]WSW[NMeNle][NMeNle]RCG-NH2; thioether N-14) | > 30.5 |  | > 74.3 | 
CCCC[C@H]1C(=O)N(C)[C@@H](CCCC)C(=O)N[C@@H](CCC(=O)O)C(=O)N[C@H](C(=O)NCC(N)=O)CSCC(=O)N[C@@H](Cc2ccc(O)cc2)C(=O)N(C)[C@@H](C)C(=O)N[C@@H](CCC(=O)O)C(=O)N2CCC[C@H]2C(=O)N[C@@H](Cc2c[nH]cn2)C(=O)N[C@@H](CCCN)C(=O)N2C[C@H](O)C[C@H]2C(=O)N[C@@H](Cc2c[nH]c3ccccc23)C(=O)N[C@@H](CCCCN)C(=O)N[C@@H](Cc2c[nH]c3ccccc23)C(=O)N1C [Example 5138] ({CH2CO}-Y[NMeA]EPH[Orn][Hyp]WKW[NMeNle][NMeNle]ECG-NH2; thioether N-14) | 0.385 to 6.74 | 0.158 to 4.71 |  | 
CCCC[C@H]1C(=O)N(C)[C@@H](CCCC)C(=O)N[C@@H](CN)C(=O)N[C@H](C(=O)NCC(N)=O)CSCC(=O)N[C@@H](Cc2ccc(O)cc2)C(=O)N(C)[C@@H](C)C(=O)N[C@@H](CC(N)=O)C(=O)N2CCC[C@H]2C(=O)N[C@@H](CN)C(=O)N[C@@H](CC(=O)O)C(=O)N2C[C@H](O)C[C@H]2C(=O)N[C@@H](Cc2c[nH]c3ccccc23)C(=O)N[C@@H](CCN)C(=O)N[C@@H](Cc2csc3ccccc23)C(=O)N1C [Example 1226] ({CH2CO}-Y[NMeA]NP[Dap]D[Hyp]W[Dab][Bta][NMeNle][NMeNle][Dap]CG-NH2; thioether N-14) | 0.385 to 6.74 |  | 0.158 to 4.71 | 
CCCC[C@H]1C(=O)N(C)[C@@H](CCCC)C(=O)N[C@@H](CO)C(=O)N[C@H](C(=O)NCC(N)=O)CSCC(=O)N[C@@H](Cc2ccc(O)cc2)C(=O)N(C)[C@@H](C)C(=O)N[C@@H](CC(N)=O)C(=O)N2CCC[C@H]2C(=O)N[C@@H](CO)C(=O)N[C@@H](CCC(N)=O)C(=O)N2C[C@H](O)C[C@H]2C(=O)N[C@@H](Cc2c[nH]c3ccccc23)C(=O)N[C@@H](CO)C(=O)N[C@@H](Cc2c[nH]c3ccccc23)C(=O)N1C [Example 5128] ({CH2CO}-Y[NMeA]NPSQ[Hyp]WSW[NMeNle][NMeNle]SCG-NH2; thioether N-14) | 0.385 to 6.74 | 0.158 to 4.71 |  | 
CCCC[C@H]1C(=O)N(C)CC(=O)N[C@@H](CC(=O)O)C(=O)N[C@@H](C(C)C)C(=O)N(C)[C@@H](Cc2ccccc2)C(=O)N[C@@H](Cc2ccc(O)cc2)C(=O)N(C)CC(=O)N[C@@H](Cc2c[nH]c3ccccc23)C(=O)N[C@@H](Cc2ccc(O)cc2)C(=O)N[C@@H](CC(C)C)C(=O)N[C@H](C(=O)NCC(N)=O)CSCC(=O)N[C@@H](Cc2ccccc2F)C(=O)N(C)[C@@H](Cc2ccccc2)C(=O)N1C [Example 3568] ({CH2CO}-[Phe(2-F)][NMeF][NMeNle][Sar]DV[NMeF]Y[Sar]WYLCG-NH2; thioether N-13) | > 30.5 | 4.78 to 72.9 |  | 
CCCC[C@H]1C(=O)N(C)[C@@H](CCCC)C(=O)N[C@@H](CCCNC(=N)N)C(=O)NC(C(=O)N[C@@H](CO)C(N)=O)CSCC(=O)N[C@@H](Cc2ccc(O)cc2)C(=O)N(C)[C@@H](C)C(=O)N[C@@H](CC(N)=O)C(=O)N2CCC[C@H]2C(=O)N[C@@H](Cc2cnc[nH]2)C(=O)N[C@@H](CO)C(=O)N2C[C@H](O)C[C@H]2C(=O)N[C@@H](Cc2c[nH]c3ccccc23)C(=O)N[C@@H](CO)C(=O)N[C@@H](Cc2c[nH]c3ccccc23)C(=O)N1C (stereo partly shown) [Example 9079] ({CH2CO}-Y[NMeA]NPHS[Hyp]WSW[NMeNle][NMeNle]R[ξC]S-NH2; thioether N-14) | 0.385 to 6.74 | 4.78 to 72.9 |  | 
CCCC[C@H]1C(=O)N(C)[C@@H](CCCC)C(=O)N[C@@H](CCCN)C(=O)N[C@H](C(=O)NCC(N)=O)CSCC(=O)N[C@@H](Cc2ccc(O)cc2)C(=O)N(C)[C@@H](C)C(=O)N[C@@H](CC(N)=O)C(=O)N2CCC[C@H]2C(=O)N[C@@H](CN)C(=O)N[C@@H](CCC(N)=O)C(=O)N2C[C@H](O)C[C@H]2C(=O)N[C@@H](Cc2c[nH]c3ccccc23)C(=O)N[C@@H](CCN)C(=O)N[C@@H](Cc2csc3ccccc23)C(=O)N1C [Example 1195] ({CH2CO}-Y[NMeA]NP[Dap]Q[Hyp]W[Dab][Bta][NMeNle][NMeNle][Orn]CG-NH2; thioether N-14) | 0.385 to 6.74 |  | 0.158 to 4.71 | 
CCCC[C@H]1C(=O)N(C)CC(=O)N[C@@H](CC(=O)O)C(=O)N[C@@H](C(C)C)C(=O)N(C)[C@@H](Cc2ccccc2)C(=O)N[C@@H](Cc2ccc(O)cc2)C(=O)N(C)CC(=O)N[C@@H](Cc2ccc(-c3ccccc3)cc2)C(=O)N[C@@H](Cc2ccc(O)cc2)C(=O)N[C@@H](CC(C)C)C(=O)N[C@H](C(=O)NCC(N)=O)CSCC(=O)N[C@@H](Cc2ccccc2)C(=O)N(C)[C@@H](Cc2ccccc2)C(=O)N1C [Example 3545] ({CH2CO}-F[NMeF][NMeNle][Sar]DV[NMeF]Y[Sar][Bip]YLCG-NH2; thioether N-13) | > 30.5 | > 74.3 |  | 
CCCC[C@H]1C(=O)N(C)[C@@H](CCCC)C(=O)N[C@@H](C)C(=O)N[C@H](C(=O)NCC(N)=O)CSCC(=O)N[C@@H](Cc2ccc(O)cc2)C(=O)N(C)[C@@H](C)C(=O)N[C@@H](CC(=O)O)C(=O)N2CCC[C@H]2C(=O)N[C@@H](CCN)C(=O)N[C@@H](CC(C)C)C(=O)N2C[C@H](O)C[C@H]2C(=O)N[C@@H](Cc2c[nH]c3ccccc23)C(=O)N[C@@H](CO)C(=O)N[C@@H](Cc2c[nH]c3ccccc23)C(=O)N1C [Example 1158] ({CH2CO}-Y[NMeA]DP[Dab]L[Hyp]WSW[NMeNle][NMeNle]ACG-NH2; thioether N-14) | 0.385 to 6.74 |  | 0.158 to 4.71 | 
CCCC[C@H]1C(=O)N(C)[C@@H](CCCC)C(=O)N[C@@H](CCCNC(=N)N)C(=O)NC(C(=O)NCC(N)=O)CCSCC(=O)N[C@@H](Cc2ccc(O)cc2)C(=O)N(C)[C@@H](C)C(=O)N[C@@H](CC(N)=O)C(=O)N2CCC[C@H]2C(=O)N[C@@H](Cc2cnc[nH]2)C(=O)N[C@@H](CC(C)C)C(=O)N2C[C@H](O)C[C@H]2C(=O)N[C@@H](Cc2c[nH]c3ccccc23)C(=O)N[C@@H](CO)C(=O)N[C@@H](Cc2csc3ccccc23)C(=O)N1C (stereo partly shown) [Example 9020] ({CH2CO}-Y[NMeA]NPHL[Hyp]WS[Bta][NMeNle][NMeNle]R[ξhCys]G-NH2; thioether N-14) | 0.385 to 6.74 | 4.78 to 72.9 |  | 
